Entries after “also recorded” stand apart in the source; their conditions may differ. Structures can show the parent of a compound that is named as a salt.
Assays:
[1] = molecular target: T1, GPBP (Homo sapiens, UniProt Q9Y5P4); assay: In vitro (auto)phosphorylation of recombinant FLAG-GPBP; format: biochemical; set-up: made in house; host or cells: Pichia pastoris; settings: for GPBP in vitro kinase activity (autophosphorylation): β-glycerophosphate phosphorylation solution pH 7.0, [γ-32P]ATP, autoradiography (FIG. 64)
T1 sequence (Q9Y5P4 1-624): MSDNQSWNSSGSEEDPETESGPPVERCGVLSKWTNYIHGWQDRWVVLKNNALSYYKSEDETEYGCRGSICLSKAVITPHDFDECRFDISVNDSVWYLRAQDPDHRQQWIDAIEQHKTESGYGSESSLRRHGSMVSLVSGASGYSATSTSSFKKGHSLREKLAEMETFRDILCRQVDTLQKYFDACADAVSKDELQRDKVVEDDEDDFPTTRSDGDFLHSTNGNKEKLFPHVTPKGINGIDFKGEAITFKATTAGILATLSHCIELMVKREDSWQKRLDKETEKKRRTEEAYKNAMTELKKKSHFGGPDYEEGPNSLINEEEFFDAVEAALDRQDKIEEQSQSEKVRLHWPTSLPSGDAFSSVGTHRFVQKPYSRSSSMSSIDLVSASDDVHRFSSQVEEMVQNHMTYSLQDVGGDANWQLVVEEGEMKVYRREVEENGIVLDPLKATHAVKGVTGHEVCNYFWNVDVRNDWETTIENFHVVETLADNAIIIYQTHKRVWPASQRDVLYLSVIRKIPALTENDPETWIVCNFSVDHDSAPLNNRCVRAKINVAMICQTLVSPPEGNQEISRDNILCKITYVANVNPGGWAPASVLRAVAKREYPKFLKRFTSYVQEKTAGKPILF
Experimental: FIG. 64. […]. Recombinant FLAG-GPBP, in similar quantities, expressed in yeast Pichia pastoris (Invitrogen) and purified with anti-FLAG resin (Sigma), as described above (Raya et al. J Biol Chem. 1999; […]. The reaction cocktails (25 μl) were incubated at 30° C. and stirred (350 rpm) for 15 minutes, then analyzed using PAGE standard procedures in the presence of SDS and β-mercaptoethanol, and electrotransferred to PVDF membrane (Immobilon P, Millipore). Membranes were then exposed to autoradiography (32P) and subsequently sent for incubation with anti-FLAG antibodies, peroxidase-labelled; ECL Prime (GE Healthcare) (WB anti-FLAG) was used for developing.
[…]. Then, electrophoresis in 10% polyacrylamide gel and electroblotting to PVDF membrane were applied. Autoradiography was applied to membranes by exposure to photographic films (Amersham Hyperfilm MP, GE Healthcare Lifesciences). After autoradiography, the membranes were blocked with 5% skimmed milk in TBST and incubated with anti-FLAG (Sigma) monoclonal antibodies and secondary antibodies against mouse IgG conjugated to peroxidase (Promega).

[2] = system: blood glucose level; assay: Effect of metformin compounds on the glucokinetic profile after oral glucose overload; format: in vivo, Rat; settings: rat, 750 mg/kg referred to metformin base, mean ± SD; for Blood glucose level, 0.25 h post-glucose overload / Blood glucose level, 1 h post-glucose overload / Blood glucose level, 4 h post-glucose overload / Blood glucose level, pre-glucose overload: *p<0.05 vs vehicle; for Blood glucose level, 3 h post-glucose overload: *p<0.05, **p<0.01 vs vehicle
[3] = STZ-diabetic male rats, mean ± SD; for Absolute body weight, Day −1 / Absolute body weight, Day −2 (distribution of groups): before first TI/RI administration
[4] = molecular target: T2, GPBP (Mus musculus, UniProt Q9EQG9); assay: GPBP phosphorylation state in C2C12 myotubes (Western blot); format: cell-based, Mice; settings: 3 hours (FIG. 65)
T2 construct: endogenous in cells; host or cells: C2C12 myotubes
T2 sequence (Q9EQG9 1-624): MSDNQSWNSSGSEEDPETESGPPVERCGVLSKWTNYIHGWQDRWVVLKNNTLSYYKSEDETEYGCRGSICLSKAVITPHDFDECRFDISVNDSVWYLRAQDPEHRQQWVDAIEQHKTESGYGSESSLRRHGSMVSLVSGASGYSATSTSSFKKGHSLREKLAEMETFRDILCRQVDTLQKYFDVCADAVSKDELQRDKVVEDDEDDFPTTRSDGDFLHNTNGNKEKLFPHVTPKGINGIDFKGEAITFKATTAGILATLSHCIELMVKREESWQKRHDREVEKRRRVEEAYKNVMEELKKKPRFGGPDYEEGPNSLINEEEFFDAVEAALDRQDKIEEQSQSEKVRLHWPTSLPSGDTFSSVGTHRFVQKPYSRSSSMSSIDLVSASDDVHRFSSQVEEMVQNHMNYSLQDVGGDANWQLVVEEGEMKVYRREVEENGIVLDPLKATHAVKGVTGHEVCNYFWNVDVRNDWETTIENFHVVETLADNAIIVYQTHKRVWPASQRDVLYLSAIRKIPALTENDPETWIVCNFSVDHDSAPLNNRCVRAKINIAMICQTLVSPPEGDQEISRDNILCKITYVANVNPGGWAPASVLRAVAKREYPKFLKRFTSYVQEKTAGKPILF
Experimental: FIG. 65. […]. Similar quantities of each extract were analyzed using Western blot (SDS-PAGE and electrotransfer), with the indicated antibodies and chemiluminescence (ECL Prime, GE Healthcare). The arrow marks a dephosphorylated band, with higher abundance in SLN10-treated cells than in non-treated or SLN1-treated cells.

[5] = system: RAW264.7 macrophages and L1 adipocytes co-cultures; assay: Cytometric analysis of RAW + L1 co-cultures; format: cell-based, Mice; settings: for EVENTS, F4/80^+CD86^− (first line) / %, F4/80^+CD86^− (second line) / EVENTS, F4/80^+CD86^− (second line) / %, F4/80^+CD86^− (first line) / %, F4/80^+: 10 mM, 24 hours; for %, F4/80^+CD86^− (second line): M1 macrophage percentage of total macrophages; for EVENTS, F4/80^+CD86^− (second line): M1 macrophages; for %, F4/80^+CD86^− (first line): of total macrophages; for %, F4/80^+: total macrophages; for reduction of the proportion of macrophages in M1: co-cultures
Description: One of the key pathogenic events in hyperglycemia of obese patients is the emergence of a pathogenic feedback between adipose tissue and macrophages of the immune system, in which adipocytes attract macrophages, polarizing them to pro-inflammatory phenotypes, and polarized macrophages secrete cytokines, promoting resistance to adipocyte insulin (Johnson A M, Olefsky J M. Cell. 2013; 152:673-84). To reproduce this pathogenic dialogue ex vivo and investigate the activity of SLNs compounds thereon, cytometric techniques allowing the discrimination between these cell lines and determination of phenotypic changes in macrophages in response to individual compounds (Table 18) were used.
RAW264.7 macrophages were added to adipocyte cultures, and the co-culture was maintained in DMEM supplemented with 10% FBS and antibiotics for 8 hours. […]. Next, cells were washed with PBS and collected by mechanical methods (without trypsin) to prevent protein loss from the cell surface. Cells were then blocked (FcBlock, BD Pharmingen) for 15 minutes at 4° C., and incubated for 20-30 minutes at 4° C. in darkness with anti-mouse F4/80 (eBioscience), conjugated with PerCP-Cy5.5, to mark macrophages, and anti-mouse CD86 (BioLegend), conjugated with PE-Cy7.7, to mark macrophages M1 specifically. Afterwards, cells were washed three times with PBS and centrifuged (500×g, 10 minutes, 4° C.), after which they were analyzed with a cytometer (FACSVerse, BD). In Table 6, the M1 macrophage percentage of the total macrophages analyzed (burgundy) for each treatment is highlighted in yellow.

Molecule | Blood glucose level, 0.25 h post-glucose overload [2] [mg/dL] | Blood glucose level, 0.5 h post-glucose overload [2] [mg/dL] | Blood glucose level, 1 h post-glucose overload [2] [mg/dL] | Blood glucose level, 2 h post-glucose overload [2] [mg/dL] | Blood glucose level, 3 h post-glucose overload [2] [mg/dL] | Blood glucose level, 4 h post-glucose overload [2] [mg/dL] | Blood glucose level, 6 h post-glucose overload [2] [mg/dL] | Blood glucose level, pre-glucose overload [2] [mg/dL] | Absolute body weight, Day −1 [3] [g] | Absolute body weight, Day −2 (distribution of groups) [3] [g] | EVENTS, F4/80^+CD86^− (first line) [5] | %, F4/80^+CD86^− (second line) [5] [%] | EVENTS, F4/80^+CD86^− (second line) [5] | %, F4/80^+CD86^− (first line) [5] [%] | %, F4/80^+ [5] [%] | reduction of the proportion of macrophages in M1 [5] | also measured
CN(C)C(=N)N=C(N)N [Metformin hydrochloride, metformin hydrochloride, reference compound] | 93.75 ± 15.78 | 89.50 ± 9.98 | 88.25 ± 10.63 | 74.00 ± 10.58 | 85.75 ± 7.37 | 83.75 ± 7.23 | 89.00 ± 11.80 | 77.00 ± 8.08 | 210.43 ± 11.90 | 223.73 ± 10.88 | 551 | 65.76 | 1,058 | 34.24 | 100.00 | lowest activity | GPBP in vitro kinase activity (autophosphorylation) [1]: moderate activator; Absolute body weight, Day −3 (before STZ administration) ([3]; baseline before STZ and before first TI/RI administration): 231.30 ± 11.83 g; GPBP phosphorylation state in myotubes [4]: barely altered the phosphorylation state
metformin lysinate | 108.33 ± 14.57 | 101.00 ± 15.13 | 106.00 ± 15.72 | 94.00 ± 19.47 | 84.67 ± 7.09 | 89.00 ± 5.29 | 98.33 ± 9.07 | 93.33 ± 22.48 | 212.73 ± 0.23 | 217.67 ± 9.71 | 566 | 62.96 | 962 | 37.04 | 100.00 | strongest effect | GPBP inhibition depending on reaction medium ([1]; Na buffer: 25 mM Tris-HCl pH 7.4, 150 mM NaCl (FIG. 66)): inhibits GPBP in Na buffer; active ingredient concentration corresponding to 1 mM ([1]; in vitro assays, pH 7.0, applicant's estimate): 8.6 µM; GPBP in vitro kinase activity (autophosphorylation) ([1]; listed as SLN10): inhibits GPBP in vitro kinase activity; also recorded: kinase activity inhibitors; GPBP phosphorylation state in myotubes ([4]; listed as SLN10): induce GPBP dephosphorylation; also recorded: induced a remarkable GPBP dephosphorylation

— US11510886B2, “Metformin amino acid compounds and methods of using the same” (Laboratorios Silancs S.A. DE C.V., priority 2016, dated 2022)
